Laboratory results as given in ChEMBL document CHEMBL4138160, “Biphenylthiazole antibiotics with an oxadiazole linker: An approach to improve physicochemical properties and oral bioavailability” (Eur J Med Chem, 2018).
In brackets after ≈: the same amount, converted by molar mass. Activity calls are given as the source filed them. The calls are words filed in the database; no cut-off is given here.

Tests used:
[1] = system: Staphylococcus aureus; experiment: Antibacterial activity against methicillin-resistant Staphylococcus aureus 2658 RCMB after 20 hrs by broth microdilution method; type: functional
[2] = Aqueous solubility in PBS after 2 hrs; type: physicochemical; settings: buffer
[3] = system: BHK-21; experiment: Cytotoxicity against BHK21 cells assessed as decrease in cell viability after 6 hrs by MTT assay; type: cell-based; settings: Mesocricetus auratus, BHK-21, 6 h
[4] = system: BHK-21; experiment: Cytotoxicity against BHK21 cells assessed as decrease in cell viability after 24 hrs by MTT assay; type: cell-based; settings: Mesocricetus auratus, BHK-21, 24 h
[5] = system: Staphylococcus aureus; experiment: Antibacterial activity against Staphylococcus aureus NRS119 clinical isolate after 20 hrs by broth microdilution method; type: functional; settings: NRS119, 20 h
[6] = system: Enterococcus faecium; experiment: Antibacterial activity against vancomycin-resistant Enterococcus faecium ATCC 700221 after 20 hrs by broth microdilution method; type: functional; settings: ATCC 700221, 20 h
[7] = system: Acinetobacter baumannii; experiment: Antibacterial activity against Acinetobacter baumannii ATCC 19606 after 20 hrs by broth microdilution method; type: functional; settings: ATCC 19606 = CIP 70.34 = JCM 6841, 20 h
[8] = system: Enterobacter cloacae; experiment: Antibacterial activity against Enterobacter cloacae BAA-1154 after 20 hrs by broth microdilution method; type: functional; settings: BAA-1154, 20 h
[9] = system: Klebsiella pneumoniae; experiment: Antibacterial activity against Klebsiella pneumoniae BAA-1706 after 20 hrs by broth microdilution method; type: functional; settings: BAA-1706, 20 h
[10] = system: Pseudomonas aeruginosa; experiment: Antibacterial activity against Pseudomonas aeruginosa ATCC 15442 after 20 hrs by broth microdilution method; type: functional; settings: ATCC 15442, 20 h
[11] = system: Staphylococcus aureus; experiment: Antibacterial activity against Staphylococcus aureus NRS119 clinical isolate after 18 to 20 hrs by broth microdilution method; type: functional
[12] = system: Staphylococcus aureus; experiment: Antibacterial activity against Staphylococcus aureus VRS11a clinical isolate after 20 hrs by broth microdilution method; type: functional
[13] = system: Staphylococcus aureus; experiment: Antibacterial activity against Staphylococcus aureus VRS12 clinical isolate after 20 hrs by broth microdilution method; type: functional; settings: VRS12, 20 h
[14] = system: Rattus norvegicus; experiment: Oral bioavailability in Sprague-Dawley rat at 25 mg/kg administered via gavage measured over 24 hrs by LC-MS/MS analysis; type: ADME, organism-based; settings: in vivo
[15] = system: Staphylococcus aureus; experiment: Antibacterial activity against methicillin-resistant Staphylococcus aureus USA300 NRS384 by broth microdilution method
[16] = system: Staphylococcus aureus; experiment: Antibacterial activity against methicillin-resistant Staphylococcus aureus USA300 NRS384 at sub MIC after 4 passages by broth microdilution method
[17] = system: Staphylococcus aureus; experiment: Antibacterial activity against methicillin-resistant Staphylococcus aureus USA300 NRS384 at sub MIC after 14 passages over 2 weeks by broth microdilution method; type: functional, organism-based
[18] = system: HRT-18 cell line; experiment: Cytotoxicity against human HRT18 cells assessed as decrease in cell viability up to 256 ug/ml after 2 hrs by MTS assay; type: cell-based; settings: hrt-18, 2 h
[19] = system: Staphylococcus aureus; experiment: Bactericidal activity against methicillin-resistant Staphylococcus aureus USA300 at 4 times MIC after 12 hrs by time kill assay; type: functional
[20] = system: Staphylococcus aureus; experiment: Bactericidal activity against methicillin-resistant Staphylococcus aureus USA300 at 4 times MIC after 24 hrs by time kill assay; type: functional, organism-based
[21] = system: Rattus norvegicus; experiment: Cmax in Sprague-Dawley rat at 25 mg/kg administered via oral gavage measured over 24 hrs by LC-MS/MS analysis; type: ADME, organism-based; set-up: dose 25 mg/kg, route oral; settings: in vivo
[22] = system: Rattus norvegicus; experiment: Tmax in Sprague-Dawley rat at 25 mg/kg administered via oral gavage measured over 24 hrs by LC-MS/MS analysis; type: ADME, organism-based; settings: in vivo
[23] = AUClast in Sprague-Dawley rat at 25 mg/kg administered via oral gavage measured over 24 hrs by LC-MS/MS analysis; type: ADME, organism-based; set-up: dose 25 mg/kg, route oral, time 0 - last; settings: in vivo
[24] = Half life in Sprague-Dawley rat at 25 mg/kg administered via oral gavage measured over 24 hrs by LC-MS/MS analysis; type: ADME, organism-based; settings: in vivo
[25] = Ratio of Cmax in Sprague-Dawley rat at 25 mg/kg administered via oral gavage to MIC for methicillin-resistant Staphylococcus aureus 2658 RCMB; type: ADME, organism-based; settings: in vivo
[26] = system: Staphylococcus aureus; experiment: Antibacterial activity against Staphylococcus aureus RN4220 NRS107 clinical isolate after 20 hrs by broth microdilution method; type: functional; settings: RN4220 NRS107, 20 h
[27] = system: Staphylococcus aureus; experiment: Antibacterial activity against Staphylococcus aureus USA400 NRS123 clinical isolate after 20 hrs by broth microdilution method; type: functional; settings: USA400 NRS123, 20 h
[28] = system: Staphylococcus aureus; experiment: Antibacterial activity against Staphylococcus aureus VRS10 clinical isolate after 20 hrs by broth microdilution method; type: functional; settings: VRS10, 20 h
[29] = system: Enterococcus faecalis; experiment: Antibacterial activity against vancomycin-resistant Enterococcus faecalis ATCC 51299 after 20 hrs by broth microdilution method; type: functional; settings: ATCC 51299, 20 h
[30] = system: HRT-18 cell line; experiment: Cytotoxicity against human HRT18 cells assessed as decrease in cell viability at 512 ug/ml after 2 hrs by MTS assay; type: cell-based; settings: hrt-18, 2 h
[31] = Ratio of non cytotoxic concentration against human HRT18 cells to MIC for methicillin-resistant Staphylococcus aureus 2658 RCMB; type: toxicity, cell-based
[32] = system: Staphylococcus aureus; experiment: Potency index, ratio of vancomycin MIC to test compound MIC for Staphylococcus aureus VRS11a clinical isolate; type: functional
[33] = system: Staphylococcus aureus; experiment: Potency index, ratio of vancomycin MIC to test compound MIC for Staphylococcus aureus VRS12 clinical isolate; type: functional
[34] = system: Staphylococcus aureus; experiment: Antibacterial activity against Staphylococcus aureus RN4220 NRS107 clinical isolate after 18 to 20 hrs by broth microdilution method; type: functional

Cc1nc(-c2ccc(-c3ccccc3)cc2)sc1-c1nnc(NC(=N)N)o1
MIC [1]: 1.56 µg/mL (≈ 4.14 µM)
solubility [2]: 128 µM (≈ 48.2 µg/mL)
IC50 [3]: > 1000 µg/mL
IC50 [4]: 45 µg/mL (≈ 119 µM)

Cc1nc(-c2ccc(-c3ccccc3)cc2)sc1-c1nnc(NC(=N)c2ccccn2)o1
MIC [1]: > 25 µg/mL

CC(=O)NC[C@H]1CN(c2ccc(N3CCOCC3)c(F)c2)C(=O)O1 [LINEZOLID]
MIC [5]: > 128 µg/mL
MIC [6]: 1 µg/mL (≈ 2.96 µM)
MIC [7]: > 64 µg/mL
MIC [8]: > 64 µg/mL
MIC [9]: > 64 µg/mL
MIC [10]: > 64 µg/mL
MIC [11]: > 128 µg/mL

Cc1nc(-c2ccc(-c3ccccc3)cc2)sc1-c1nnc(NC(=N)c2cccnc2)o1
MIC [1]: > 25 µg/mL

Cc1nc(-c2ccc(-c3ccccc3)cc2)sc1-c1nnc(N2CCC2)o1
MIC [1]: > 25 µg/mL

Cc1nc(-c2ccc(-c3ccccc3)cc2)sc1-c1nnc(N2CCN(C)CC2)o1
MIC [1]: 1.56 µg/mL (≈ 3.74 µM)
solubility [2]: 45 µM (≈ 18.8 µg/mL)

Cc1nc(-c2ccc(-c3ccccc3)cc2)sc1-c1nnc(NC2CCCCC2)o1
MIC [1]: > 25 µg/mL

Cc1nc(-c2ccc(-c3ccccc3)cc2)sc1-c1nnc(N2CC(O)C2)o1
MIC [1]: 3.12 µg/mL (≈ 7.99 µM)
solubility [2]: 150 µM (≈ 58.6 µg/mL)

Cc1nc(-c2ccc(-c3ccccc3)cc2)sc1-c1nnc(NN)o1
MIC [1]: 3.12 µg/mL (≈ 8.93 µM)
solubility [2]: 77 µM (≈ 26.9 µg/mL)

Cc1nc(-c2ccc(-c3ccccc3)cc2)sc1-c1nnc(N2CCCC2)o1
MIC [1]: > 25 µg/mL

Cc1nc(-c2ccc(-c3ccccc3)cc2)sc1-c1nnc(NC(=N)N2CCCCC2)o1
MIC [1]: > 25 µg/mL

Cc1nc(-c2ccc(-c3ccccc3)cc2)sc1-c1nnc(NC2CCCC2)o1
MIC [1]: > 25 µg/mL

CN[C@H](CC(C)C)C(=O)N[C@H]1C(=O)N[C@@H](CC(N)=O)C(=O)N[C@H]2C(=O)N[C@H]3C(=O)N[C@H](C(=O)N[C@H](C(=O)O)c4cc(O)cc(O)c4-c4cc3ccc4O)[C@H](O)c3ccc(c(Cl)c3)Oc3cc2cc(c3O[C@@H]2O[C@H](CO)[C@@H](O)[C@H](O)[C@H]2O[C@H]2C[C@](C)(N)[C@H](O)[C@H](C)O2)Oc2ccc(cc2Cl)[C@H]1O [VANCOMYCIN]
MIC [1]: 1.56 µg/mL (≈ 1.08 µM)
MIC [12]: > 512 µg/mL
MIC [13]: > 512 µg/mL
MIC [6]: > 64 µg/mL

CCN(CC)c1nnc(-c2sc(-c3ccc(-c4ccccc4)cc3)nc2C)o1
MIC [1]: > 25 µg/mL

Cc1nc(-c2ccc(-c3ccccc3)cc2)sc1-c1nnc(N2CCOCC2)o1
MIC [1]: 12.5 µg/mL (≈ 30.9 µM)

Cc1nc(-c2ccc(-c3ccccc3)cc2)sc1-c1ccnc(NC(=N)N)n1
solubility [2]: 2.2 µM (≈ 0.85 µg/mL)

CNC(=N)Nc1nnc(-c2sc(-c3ccc(-c4ccccc4)cc3)nc2C)o1
MIC [1]: 1.56 µg/mL (≈ 4 µM)
solubility [2]: 89 µM (≈ 34.8 µg/mL)

CNc1nnc(-c2sc(-c3ccc(-c4ccccc4)cc3)nc2C)o1
MIC [1]: 12.5 µg/mL (≈ 35.9 µM)

CCCCc1ccc(-c2nc(C)c(/C(C)=N/NC(=N)N)s2)cc1
F [14]: 0%

Cc1nc(-c2ccc(-c3ccccc3)cc2)sc1-c1nnc(NC(=N)N2CCCC2)o1
MIC [1]: 12.5 µg/mL (≈ 29 µM)

CCCCNc1nnc(-c2sc(-c3ccc(-c4ccccc4)cc3)nc2C)o1
MIC [1]: > 25 µg/mL

CO[C@H]1/C=C/O[C@@]2(C)Oc3c(C)c(O)c4c(O)c(c(/C=N/N5CCN(C)CC5)c(O)c4c3C2=O)NC(=O)/C(C)=C\C=C\[C@H](C)[C@H](O)[C@@H](C)[C@@H](O)[C@@H](C)[C@H](OC(C)=O)[C@@H]1C [RIFAMPIN]
MIC [15]: 0.006 µg/mL (≈ 0.00729 µM)
MIC [16]: 1.6 µg/mL (≈ 1.94 µM)

CCNc1nnc(-c2sc(-c3ccc(-c4ccccc4)cc3)nc2C)o1
MIC [1]: > 25 µg/mL

Cc1nc(-c2ccc(-c3ccccc3)cc2)sc1-c1nnc(NC(=N)N2CCOCC2)o1
MIC [1]: 1.56 µg/mL (≈ 3.49 µM)
Activity [17]: Active
Activity [18]: Non-Toxic

Cc1nc(-c2ccc(-c3ccccc3)cc2)sc1-c1nnc(NC(=N)N2CCN(C)CC2)o1
MIC [1]: 1.17 µg/mL (≈ 2.55 µM)
Activity [19]: 3 deltalog10CFU/ml
Activity [20]: Active
solubility [2]: 104 µM (≈ 47.8 µg/mL)
Activity [17]: Active
Cmax [21]: 6222.1 ng/mL
Tmax [22]: 1.7 h
AUC(0-t) at 24 h [23]: 83200 ng·h/mL
half-life [24]: 2.04 h
F [14]: 42.5%
Ratio [25]: 6
MIC [26]: 8 µg/mL (≈ 17.4 µM)
MIC [27]: 16 µg/mL (≈ 34.8 µM)
MIC [28]: 16 µg/mL (≈ 34.8 µM)
MIC [12]: 16 µg/mL (≈ 34.8 µM)
MIC [13]: 16 µg/mL (≈ 34.8 µM)
MIC [6]: > 64 µg/mL
MIC [29]: > 64 µg/mL
MIC [7]: > 64 µg/mL
MIC [8]: > 64 µg/mL
MIC [9]: > 64 µg/mL
MIC [10]: > 64 µg/mL
Activity [30]: Non-Toxic
selectivity ratio [31]: > 400
IC50 [3]: 398 µg/mL (≈ 866 µM)
IC50 [4]: 45.7 µg/mL (≈ 99.4 µM)
Ratio [32]: 30
Ratio [33]: 30

C/C(=C\C(=O)OCCCCCCCCC(=O)O)C[C@@H]1OC[C@H](C[C@@H]2O[C@H]2[C@@H](C)[C@H](C)O)[C@@H](O)[C@H]1O [MUPIROCIN]
MIC [34]: 1020 µg/mL (≈ 2050 µM)

C/C(=N\NC(=N)N)c1sc(-c2ccc(-c3ccccc3)cc2)nc1C
MIC [1]: 2.75 µg/mL (≈ 7.87 µM)
solubility [2]: 2.7 µM (≈ 0.944 µg/mL)

Cc1nc(-c2ccc(-c3ccccc3)cc2)sc1-c1nnc(N(C)C)o1
MIC [1]: > 25 µg/mL

Cc1nc(-c2ccc(-c3ccccc3)cc2)sc1-c1nnc(NC(C)C)o1
MIC [1]: > 25 µg/mL

Cc1nc(-c2ccc(-c3ccccc3)cc2)sc1-c1nnc(NC(=N)c2ccncc2)o1
MIC [1]: > 25 µg/mL

CCCNc1nnc(-c2sc(-c3ccc(-c4ccccc4)cc3)nc2C)o1
MIC [1]: > 25 µg/mL
